Legend:
Assay in all cases: Antifungal growth assay in potato dextrose broth, 24-well
Type in all cases: cell-based
[1] = system: Monilinia sp.; conditions: 2x assays
Experimental: (§1) Fungi to be tested were propagated on potato dextrose agar (PDA) plates at room temperature. Stock solutions of pseudomycins and depsipeptide were suspended in dimethylsulfoxide (DMSO) (Sigma) at 5 mg/ml and stored at −20C. Serial dilutions of compounds were done the day of the experiment. All serial dilutions were made in DMSO. […] These are noted in the raw data section.
(§2) Assays were performed in 24-well cell culture clusters (Costar 3524), with 990 ul potato dextrose broth (PDB, Difco) and 10 ul of the compound to be tested in each well. Initial concentrations tested were 50-1.56 ug/ml (final concentration of pseudomycin). Actual concentrations of pseudomycins tested were 50, 25, 12.5, 6.25, 3.12 and 1.56 ug/ml. Each well was inoculated with the appropriate fungus. Unless noted, the fungal inoculum consisted of an ˜4 mm^2 piece of PDA with fungal mycelium. The exceptions were as follows. Ustilago maydis: this fungus grows much like a yeast on PDA, and cells were scraped from the PDA stock plate, resuspended in PDB and 10 ul inoculum added to each well. Monilinia sp.: this fungal mycelium grows as a very loose sheet on top of PDA and would not adhere to agar blocks. Fungal mycelium was ground with a metal rod in 500 ul PDB and 10 ul inoculum was added to each well. Mycosphaeella fijiensis, Septoria passerinii, Septoria triticii: these fungi all grow very slowly and the results were difficult to score if a small piece of agar with fungal mycelium on it was used as an inoculum. For these fungi, the mycelium was ground with a metal rod in 500 ul PDB and 10 ul inoculum was added to each well.
(§3) Wells were scored for fungal growth at two days and five days. Some slow growing fungi were scored at later days for growth because assessment was not possible at two or five days. Growth was scored by comparison to a control consisting of fungus inoculated into 990 ul potato dextrose broth and 10 ul of DMSO (Dimethylsulfoxide). An additional control consisting of fungal inoculum in PDB only was performed to ensure that the DMSO was not inhibitory to fungal growth.
(§4) For assays that were repeated, new stock solutions were made from a second shipment of pseudomycins. Note that pseudomycin B′ and depsipeptide stock solutions were remade from first shipment materials because these were not included in the second shipment. […] Actual concentrations of pseudomycins tested were 2, 1, 0.5, 0.25, 0.125 and 0.0625 ug/ml. A-PO4 and A-FB=pseudomycin A phosphate salt and free base respectively.
(§5) Table 2: Two day results—concentration indicated is lowest level of compound (ug /ml) that results is no growth. NI, no inhibition; p (partial), at least 50% inhibited; -, not determined. If number of assays was greater than one, number of assays performed on the fungus is noted in parentheses. For several slow-growing fungi, days elapsed before observation (if different than two) are noted.
(§6) Table 3: Five day results—concentration indicated is lowest level of compound (ug /ml) that results in no growth. NI, no inhibition; p (partial), at least 50% inhibited; -, not performed on the fungus is noted in parentheses. For several slow-growing fungi, days elapsed before observation (if different than five) are noted.

[2] = system: Septoria passerinii; conditions: 3x assays
Experimental: as §1, §2, §3, §4, §5, §6

[3] = system: Mycosphaeella fijiensis (8088/88); conditions: 3x assays
Experimental: as §1, §2, §3, §4, §5, §6

[4] = system: Mycosphaeella fijiensis (Sigatoka); conditions: 3x assays
Experimental: as §1, §2, §3, §4, §5, §6

[5] = system: Penicillium roqueforti; conditions: 3x assays
Experimental: as §1, §2, §3, §4, §5, §6

[6] = system: Ustilago maydis; conditions: 3x assays
Experimental: as §1, §2, §3, §4, §5, §6

[7] = system: Geotrichim candidum; conditions: 3x assays
Experimental: as §1, §2, §3, §4, §5, §6

[8] = system: Septoria tritici; conditions: 3x assays
Experimental: as §1, §2, §3, §4, §5, §6

[9] = system: Drechslera portulacae; conditions: 3x assays
Experimental: as §1, §2, §3, §4, §5, §6

[10] = system: Rhizoctonia solani; conditions: 2x assays
Experimental: as §1, §2, §3, §4, §5, §6

[11] = system: Phytophthora cinnemani; set-up: key: NI, no inhibition; p (partial), at least 50% inhibited
Experimental: as §1, §2, §3, §4, §5, §6

[12] = system: Diplodia natalensis; set-up: key: NI, no inhibition; p (partial), at least 50% inhibited
Experimental: as §1, §2, §3, §4, §5, §6

[13] = system: Phoma chrysamthecola; set-up: key: NI, no inhibition; p (partial), at least 50% inhibited; conditions: five day results
Experimental: as §1, §2, §3, §4, §5, §6

[14] = system: Tapesia acuformis; set-up: key: NI, no inhibition; p (partial), at least 50% inhibited; conditions: 2x assays
Experimental: as §1, §2, §3, §4, §5, §6

[15] = system: Fusarium solani; set-up: key: NI, no inhibition; p (partial), at least 50% inhibited
Experimental: as §1, §2, §3, §4, §5, §6

[16] = system: Stagonospora nodorum; set-up: key: NI, no inhibition; p (partial), at least 50% inhibited
Experimental: as §1, §2, §3, §4, §5, §6

[17] = system: Drechslera teres; set-up: key: NI, no inhibition; p (partial), at least 50% inhibited
Experimental: as §1, §2, §3, §4, §5, §6

[18] = system: Aphanomyces sp.; set-up: key: NI, no inhibition; p (partial), at least 50% inhibited; conditions: 2x assays
Experimental: as §1, §2, §3, §4, §5, §6

[19] = system: Alternaria helianthi; set-up: key: NI, no inhibition; p (partial), at least 50% inhibited; conditions: 2x assays
Experimental: as §1, §2, §3, §4, §5, §6

[20] = system: Phytophthora ultimum; set-up: key: NI, no inhibition; p (partial), at least 50% inhibited
Experimental: as §1, §2, §3, §4, §5, §6

[21] = system: Fusarium oxysporum cubense; set-up: key: NI, no inhibition; p (partial), at least 50% inhibited
Experimental: as §1, §2, §3, §4, §5, §6

[22] = Table 2 (two day results), observed at 7 day
[23] = Table 3 (five day results), observed at 21 days

## pseudomycin A-FB
[1]; five day results
  lowest level of compound that results in no growth: 12.5 µg/mL
[1]; two day results
  lowest level of compound that results in no growth: 6.25 µg/mL
[2]; five day results
  lowest level of compound that results in no growth: 0.06 µg/mL
[2]; five day results, listed as pseudomycin A (free base)
  lowest level of compound that results in no growth: 0.0625 µg/mL
[2]; two day results
  lowest level of compound that results in no growth: 0.06 µg/mL
[3]; [22]
  lowest level of compound that results in no growth: 0.25 µg/mL
[3]; [23]
  lowest level of compound that results in no growth: 0.25 µg/mL
[4]; [22]
  lowest level of compound that results in no growth: 0.5 µg/mL
[4]; [23]
  lowest level of compound that results in no growth: 1 µg/mL
[5]; five day results
  lowest level of compound that results in no growth: 3.12 µg/mL
[5]; two day results
  lowest level of compound that results in no growth: 1 µg/mL
[6]; five day results
  lowest level of compound that results in no growth: 1 µg/mL
[6]; two day results
  lowest level of compound that results in no growth: 1 µg/mL
[7]; five day results
  lowest level of compound that results in no growth: 6.25 µg/mL
[7]; two day results
  lowest level of compound that results in no growth: 3.12 µg/mL
[8]; five day results
  lowest level of compound that results in no growth: 0.25 µg/mL
[8]; two day results
  lowest level of compound that results in no growth: 0.25 µg/mL
[9]; Table 3 (five day results), observed at 9 day
  lowest level of compound that results in no growth: 0.25 µg/mL
[9]; two day results
  lowest level of compound that results in no growth: 0.25 µg/mL
[10]; five day results
  lowest level of compound that results in no growth: 50 µg/mL
[10]; two day results
  lowest level of compound that results in no growth: 6.25 µg/mL
[11]; five day results
  lowest level of compound that results in no growth: NI
[11]; two day results
  lowest level of compound that results in no growth: NI
[12]; five day results
  lowest level of compound that results in no growth: NI
[12]; two day results
  lowest level of compound that results in no growth: NI
[13]
  lowest level of compound that results in no growth: p at 50
[14]; five day results
  lowest level of compound that results in no growth: NI
[14]; two day results
  lowest level of compound that results in no growth: NI
[15]; five day results
  lowest level of compound that results in no growth: NI
[15]; two day results
  lowest level of compound that results in no growth: p at 50
[16]; five day results
  lowest level of compound that results in no growth: NI
[16]; two day results
  lowest level of compound that results in no growth: NI
[17]; five day results
  lowest level of compound that results in no growth: NI
[17]; two day results
  lowest level of compound that results in no growth: NI
[18]; five day results
  lowest level of compound that results in no growth: NI
[18]; two day results
  lowest level of compound that results in no growth: NI
[19]; five day results
  lowest level of compound that results in no growth: 25 µg/mL
[19]; two day results
  lowest level of compound that results in no growth: 25 µg/mL
[20]; five day results
  lowest level of compound that results in no growth: NI
[20]; two day results
  lowest level of compound that results in no growth: NI
[21]; five day results
  lowest level of compound that results in no growth: NI
[21]; two day results
  lowest level of compound that results in no growth: NI

From patent publication US7326689B2, “Pseudomycins useful against plant diseases” (Eli Lilly and Company, priority 2000, dated 2008)
